Measured values taken from ChEMBL document CHEMBL1201862, “PubChem BioAssay data set” (2004).
Calls of active or inactive are those of the source.

Experiments:
Bcl-2-like protein 1 = Bcl-2-like protein 1 (Homo sapiens, UniProt Q07817); assay: BCL-XL inhibitors, dose response, selectivity assay for MCL1 inhibitor project, biochemical, fluorescence polarization, 1536-well (AID 2218)
[1] = target: Induced myeloid leukemia cell differentiation protein Mcl-1 (Homo sapiens, UniProt Q07820); assay: MCL1-BIM BH3 interaction inhibitors, dose response, biochemical, fluorescence polarization, BIM-BH3 peptide, 1536-well (AID 2217)
Vasopressin V1a receptor = Vasopressin V1a receptor (Homo sapiens, UniProt P37288); assay: Fluorescence-based cell-based high throughput dose response screening assay for agonists of the vasopressin 1 receptor (V1R).; assay type: functional
Oxytocin receptor = Oxytocin receptor (Homo sapiens, UniProt P30559); assay: Counterscreen for vasopressin 1 receptor (V1R) agonists: Fluorescence-based cell-based high throughput dose response assay for agonists of the Oxytocin Receptor (OXTR). [Related pubchem assays: 2435 (Primary screen (OXTR agonists in singlicate)), 434964 (Confirmation screen (V1R agonists in triplicate)), 434969 (Counterscreen (OXTR agonists in …; assay type: functional
[2] = M. tuberculosis H37Rv growth inhibitors, H37Rv strain (AID 1626); assay type: functional
[3] = target: T1, Neuropeptide Y receptor type 1 (Homo sapiens, UniProt P25929); assay: Fluorescence-based counterscreen for agonists of NPY-Y2: cell-based high-throughput dose response assay for agonists of NPY-Y1.; assay type: functional
T1 sequence (P25929 whole entry): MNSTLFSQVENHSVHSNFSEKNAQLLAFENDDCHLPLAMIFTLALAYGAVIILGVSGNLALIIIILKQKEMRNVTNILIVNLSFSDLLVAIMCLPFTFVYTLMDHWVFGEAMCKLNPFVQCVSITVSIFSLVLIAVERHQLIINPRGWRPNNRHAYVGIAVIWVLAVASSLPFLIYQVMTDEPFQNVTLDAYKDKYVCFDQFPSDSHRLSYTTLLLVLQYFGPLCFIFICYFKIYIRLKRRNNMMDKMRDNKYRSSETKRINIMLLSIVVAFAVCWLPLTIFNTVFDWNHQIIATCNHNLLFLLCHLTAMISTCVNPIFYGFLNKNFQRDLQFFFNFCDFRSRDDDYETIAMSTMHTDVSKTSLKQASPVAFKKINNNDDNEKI

[4] = target: T2, Neuropeptide Y receptor type 2 (Homo sapiens, UniProt P49146); assay: Fluorescence-based cell-based high-throughput dose response assay for agonists of NPY-Y2. [Related pubchem assays: 1703 (Screening assay (CNGC inhibitors).), 1359 (Screening assay (NPY-Y2 potentiators or agonists).), 1304 (Screening assay (NPY-Y1 potentiators or agonists).), 1710 (Screening assay (NPY-Y2 agonists).), 1791 (Summary AID.)]; assay type: functional
T2 sequence (P49146 whole entry): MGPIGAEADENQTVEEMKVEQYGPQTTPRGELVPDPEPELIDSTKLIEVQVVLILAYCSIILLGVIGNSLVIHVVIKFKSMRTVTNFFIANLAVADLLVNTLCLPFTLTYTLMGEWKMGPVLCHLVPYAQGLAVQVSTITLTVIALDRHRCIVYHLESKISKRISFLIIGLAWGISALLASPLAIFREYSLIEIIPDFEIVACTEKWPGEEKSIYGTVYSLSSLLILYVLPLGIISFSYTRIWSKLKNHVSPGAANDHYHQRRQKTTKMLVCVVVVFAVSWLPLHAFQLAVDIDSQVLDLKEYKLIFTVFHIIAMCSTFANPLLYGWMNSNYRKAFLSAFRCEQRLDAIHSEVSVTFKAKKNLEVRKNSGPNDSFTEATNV

[5] = inhibitors of intracellular T. cruzi replication, confirmation, NIH3T3 host cells, beta-gal luminescence (AID 2044); assay type: functional, cell-based;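 further: intracellular parasites grown in NIH/3T3 mouse fibroblasts as host cells; luminescent beta-galactosidase reporter signal from transgenic T. cruzi replicating inside host cells; inhibitors lower the luminescence signal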
HEK293 = assay: Fluorescence-based counterscreen for potentiators or agonists of NPY-Y2: cell-based high-throughput dose response assay to identify inhibitors of cyclic nucleotide gated ion channel (CNGC) activity. In this assay, the parental HEK293 cell line transfected with a cyclic-nucleotide gated ion channel (CNGC)-based cAMP sensor is used to measure inhibition of isoproterenol-induced CNGC activity by test compound.; assay type: functional; conditions: Homo sapiens;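 further: stimulus is 1 µM isoproterenol at EC100 plus PDE inhibitor Ro 20-1724 at 25 µM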
[6] = inhibitors of Vif binding to APOBEC3G peptide, primary screen, biochemical, TR-FRET, GST-Vif 1-94, biotin-A3G peptide, dose response retest (AID 1117319); assay type: functional;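 further: TR-FRET signal of purified GST-Vif binding a biotinylated A3G peptide; inhibitors lower the FRET signal by blocking Vif and A3G binding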
[7] = THP-1 cell cytotoxicity, dose response, cytotoxicity control for Vif-APOBEC3G degradation inhibitor project, THP-1 cells (AID 1117359); assay type: functional; conditions: Human immunodeficiency virus 1, THP-1
[8] = cytotoxicity toward NIH3T3 fibroblasts, dose response, counter-screen, cell-based, ATP luminescence, mouse fibroblasts (AID 2010); assay type: functional;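 further: cells exposed to compound for about 90 hours before reading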
Bcl-2-like protein 10 = Bcl-2-like protein 10 (Homo sapiens, UniProt Q9HD36); assay: Biochemical TR3 FP assay of Bcl-B inhibitor potency, EC50 (AID 1243); assay type: functional
[9] = Luminescence-based counterscreen assay for KLF5 inhibitors: dose response cell-based high throughput screening assay to identify cytotoxic compounds using the IEC-6 intestinal epithelial cell line. [Related pubchem assays: 1700 (Primary screen.), 1834 (Confirmation screen.), 1858 (Summary AID.), 1905 (Counterscreen.)]; assay type: functional

Bcl-2-like protein 1, sequence (Q07817 whole entry): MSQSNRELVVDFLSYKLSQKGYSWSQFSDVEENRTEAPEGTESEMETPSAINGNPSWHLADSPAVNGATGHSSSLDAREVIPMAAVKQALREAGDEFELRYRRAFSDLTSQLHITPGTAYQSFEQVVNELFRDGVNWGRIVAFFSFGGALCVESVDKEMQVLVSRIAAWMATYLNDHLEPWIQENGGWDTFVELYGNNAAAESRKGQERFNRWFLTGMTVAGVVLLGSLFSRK
Bcl-2-like protein 10, sequence (Q9HD36 whole entry): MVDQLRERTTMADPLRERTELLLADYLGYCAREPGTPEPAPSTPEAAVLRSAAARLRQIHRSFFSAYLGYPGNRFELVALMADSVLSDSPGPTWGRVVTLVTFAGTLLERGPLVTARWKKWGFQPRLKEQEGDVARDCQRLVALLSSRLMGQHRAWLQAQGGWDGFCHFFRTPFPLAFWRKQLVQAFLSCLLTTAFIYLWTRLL
Induced myeloid leukemia cell differentiation protein Mcl-1, sequence (Q07820 whole entry): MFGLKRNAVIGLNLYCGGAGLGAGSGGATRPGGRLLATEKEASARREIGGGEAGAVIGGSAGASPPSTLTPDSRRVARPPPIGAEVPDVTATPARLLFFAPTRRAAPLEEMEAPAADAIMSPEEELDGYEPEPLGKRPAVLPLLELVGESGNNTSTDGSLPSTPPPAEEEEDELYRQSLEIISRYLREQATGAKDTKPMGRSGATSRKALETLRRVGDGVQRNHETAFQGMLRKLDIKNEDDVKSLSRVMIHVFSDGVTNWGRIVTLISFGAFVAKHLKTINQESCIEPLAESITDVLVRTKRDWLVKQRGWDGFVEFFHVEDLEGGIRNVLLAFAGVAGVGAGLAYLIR
Vasopressin V1a receptor, sequence (P37288 whole entry): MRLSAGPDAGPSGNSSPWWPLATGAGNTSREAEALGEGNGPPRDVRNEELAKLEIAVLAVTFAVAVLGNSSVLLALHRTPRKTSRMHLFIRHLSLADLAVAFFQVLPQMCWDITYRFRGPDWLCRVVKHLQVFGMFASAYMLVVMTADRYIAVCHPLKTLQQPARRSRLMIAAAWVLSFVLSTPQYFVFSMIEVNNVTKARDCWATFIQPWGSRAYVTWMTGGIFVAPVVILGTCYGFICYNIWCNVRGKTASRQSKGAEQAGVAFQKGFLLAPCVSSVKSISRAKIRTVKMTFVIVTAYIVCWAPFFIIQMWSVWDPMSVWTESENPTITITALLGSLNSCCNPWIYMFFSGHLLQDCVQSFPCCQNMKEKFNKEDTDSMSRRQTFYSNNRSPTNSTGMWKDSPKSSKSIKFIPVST
Oxytocin receptor, sequence (P30559 whole entry): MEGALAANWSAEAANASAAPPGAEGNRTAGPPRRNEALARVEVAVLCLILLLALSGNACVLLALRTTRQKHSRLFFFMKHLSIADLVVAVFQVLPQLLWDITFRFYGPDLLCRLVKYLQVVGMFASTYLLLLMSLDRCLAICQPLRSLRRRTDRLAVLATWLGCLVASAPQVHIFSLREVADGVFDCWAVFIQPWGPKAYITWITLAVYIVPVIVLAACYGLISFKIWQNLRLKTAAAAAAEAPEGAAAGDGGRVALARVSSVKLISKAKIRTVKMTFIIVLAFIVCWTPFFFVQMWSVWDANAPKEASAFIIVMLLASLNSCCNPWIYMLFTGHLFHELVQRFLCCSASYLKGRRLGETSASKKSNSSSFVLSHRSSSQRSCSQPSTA

In the case of `CCOC(=O)C[C@H]1c2ccc(C(F)(F)F)cc2S(=O)(=O)N1c1cccc(OC)c1`, the IC50 (Bcl-2-like protein 1) is reported as > 109 µM (not active) and the IC50 [1] is reported as > 109 µM (not active).

For `CC(NC(=O)Nc1ccc(Cl)c(Cl)c1)C(c1ccccc1)N1CCOCC1` (centres undefined), the EC50 (Vasopressin V1a receptor) was 6.23 µM (active) and the EC50 (Oxytocin receptor) was > 29.9 µM (not active).

With `CCOC(=O)c1ccc(NC(=O)c2nnc(O)c3ccccc23)cc1` the IC50 [2] was > 100 µM (active).

In the case of `COc1ccc(NC(=O)c2c(OC)cccc2OC)c(OC)c1`, the EC50 [3] is reported as > 35.4 µM (not active), the EC50 [4] is reported as > 35.4 µM (not active) and the EC50 [5] is reported as 3.06 µM (active). The EC50 (HEK293) was > 35.4 µM (not active), the IC50 [6] was > 60.5 µM (active) and the CC50 [7] was > 40 µM (active). The EC50 [8] was > 60 µM (not active).

In the case of `Cc1ccc(C)n1-c1cc(C(=O)O)cc(C(=O)O)c1`, the EC50 (Bcl-2-like protein 10) is reported as 0.54 µM (active).

For `O=C(N/N=C/c1cccc(Oc2ccccc2)c1)c1ccccc1F`, the IC50 [9] was 18.7 µM (not active).
